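1) Cells in 96-well plates. 2) Compound, 48 h, 5 concentrations. 3) Linear interpolation between surrounding doses. 4) Unreached endpoint = highest concentration. Abbreviation: GI50, concentration required for 50% inhibition of growth.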 The source made the active and inactive calls. No stated cut-off is given here; in the data, active = GI50 up to about 1.1 µM and inactive = higher.
Tests used:
Assay in all cases: DTP human tumour cell line panel, 48 h
[1] = test system: OVCAR-8
[2] = test system: SF-268
[3] = test system: TK-10
[4] = test system: NCI-H23
[5] = test system: OVCAR-5
[6] = test system: HCC 2998
[7] = test system: DLD-1
[8] = test system: SK-MEL-5
[9] = test system: RPMI-8226
[10] = test system: SF-539
[11] = test system: SK-MEL-28
[12] = test system: EKVX
[13] = test system: 786-0
[14] = test system: Malme-3M
[15] = test system: SK-MEL-2
[16] = test system: M14
[17] = test system: A498
[18] = test system: NCI-H226
[19] = test system: IGROV-1
[20] = test system: LXFL 529
[21] = test system: HCT-15
[22] = test system: SNB-19
[23] = test system: DMS-273
[24] = test system: HL-60
[25] = test system: SNB-78
[26] = test system: OVCAR-3
[27] = test system: LOX IMVI
[28] = test system: UACC-257
[29] = test system: SW-620
[30] = test system: HOP-92
[31] = test system: RXF 393
[32] = test system: NCI-H522
[33] = test system: M19-MEL
[34] = test system: UO-31
[35] = test system: CAKI-1
[36] = test system: A549
[37] = test system: KM12
[38] = test system: KM-20L2
[39] = test system: MOLT-4
[40] = test system: COLO 205
[41] = test system: SF-295
[42] = test system: NCI-H460
[43] = test system: HT-29
[44] = test system: SK-OV-3
[45] = test system: K562
[46] = test system: SN12C
[47] = test system: UACC-62
[48] = test system: CCRF-CEM
[49] = test system: HOP-62
[50] = test system: HOP-18
[51] = test system: SR
[52] = test system: HCT-116
[53] = test system: DMS-114
[54] = test system: U-251
[55] = test system: OVCAR-4
[56] = test system: XF498
[57] = test system: SNB-75
[58] = test system: ACHN

Measured: GI50

COC(=O)/C(=C/c1ccc(OC)cc1)C(C(=O)O)=C(C)C
> 100 µM: [21]
inactive: [1] > 100 µM | [2] > 100 µM | [3] > 100 µM | [4] > 100 µM | [5] > 100 µM | [6] > 100 µM | [7] > 100 µM | [8] > 100 µM | [9] > 100 µM | [10] > 100 µM | [11] > 100 µM | [12] > 100 µM | [13] > 100 µM | [14] > 100 µM | [15] > 100 µM | [16] > 100 µM | [17] > 100 µM | [18] > 100 µM | [19] > 100 µM | [20] > 100 µM | [22] > 100 µM | [23] > 100 µM | [24] > 100 µM | [25] > 100 µM | [26] > 100 µM | [27] > 100 µM | [28] > 100 µM | [29] > 100 µM | [30] > 100 µM | [31] > 100 µM | [32] > 100 µM | [33] > 100 µM | [34] > 100 µM | [35] > 100 µM | [36] > 100 µM | [37] > 100 µM | [38] > 100 µM | [39] > 100 µM | [40] > 100 µM | [41] > 100 µM | [42] > 100 µM | [43] > 100 µM | [44] > 100 µM | [45] > 100 µM | [46] > 100 µM | [47] > 100 µM | [48] > 100 µM | [49] > 100 µM | [50] > 100 µM | [51] > 100 µM | [52] > 100 µM | [53] > 100 µM | [54] > 100 µM

C[C@H](CCC1SC1(C)C)C1CCC2(C)C3=C(CC[C@]12C)[C@@]1(C)CC[C@H](O)C(C)(C)C1CC3 (stereo partly drawn)
> 100 µM: [21]
inactive: [1] > 100 µM | [2] > 100 µM | [3] > 100 µM | [4] > 100 µM | [5] > 100 µM | [6] > 100 µM | [55] > 100 µM | [7] > 100 µM | [8] > 100 µM | [56] > 100 µM | [9] > 100 µM | [11] > 100 µM | [12] > 100 µM | [13] > 100 µM | [14] > 100 µM | [15] > 100 µM | [16] > 100 µM | [17] > 100 µM | [18] > 100 µM | [19] > 100 µM | [20] > 100 µM | [22] > 100 µM | [23] > 100 µM | [24] > 100 µM | [26] > 100 µM | [57] 75.2 µM | [27] > 100 µM | [58] 61 µM | [28] > 100 µM | [29] > 100 µM | [30] > 100 µM | [31] > 100 µM | [32] > 100 µM | [34] > 100 µM | [35] > 100 µM | [36] > 100 µM | [37] > 100 µM | [38] > 100 µM | [39] > 100 µM | [40] > 100 µM | [41] > 100 µM | [42] > 100 µM | [43] > 100 µM | [44] > 100 µM | [45] > 100 µM | [46] > 100 µM | [47] > 100 µM | [48] > 100 µM | [49] > 100 µM | [50] > 100 µM | [51] > 100 µM | [52] > 100 µM | [53] > 100 µM | [54] > 10 µM

CCC1=C(C(C)=O)[C@@H]2CCCCC(C(=O)OC)[C@@H]2C1=O (stereo partly drawn)
> 100 µM: [21]
inactive: [1] > 100 µM | [2] > 100 µM | [3] > 100 µM | [4] > 100 µM | [5] > 100 µM | [6] > 100 µM | [55] > 100 µM | [7] > 100 µM | [8] > 100 µM | [9] > 100 µM | [10] > 100 µM | [11] > 100 µM | [12] > 100 µM | [13] > 100 µM | [14] > 100 µM | [15] > 100 µM | [16] > 100 µM | [17] > 100 µM | [18] > 100 µM | [19] > 100 µM | [20] > 100 µM | [22] > 100 µM | [23] > 100 µM | [24] > 100 µM | [25] > 100 µM | [57] > 100 µM | [58] > 100 µM | [28] > 100 µM | [29] > 100 µM | [30] > 100 µM | [31] > 100 µM | [32] 88.1 µM | [33] 79.4 µM | [34] > 100 µM | [35] > 100 µM | [36] > 100 µM | [37] > 100 µM | [38] > 100 µM | [39] > 100 µM | [40] > 100 µM | [41] > 100 µM | [42] > 100 µM | [43] > 100 µM | [44] > 100 µM | [45] > 100 µM | [46] > 100 µM | [47] > 100 µM | [48] > 100 µM | [49] > 100 µM | [50] 47 µM | [52] > 100 µM | [53] > 100 µM | [54] > 100 µM
